Experimental data as given in article PMC6213900, “Design, Synthesis, and Cytotoxic Analysis of Novel Hederagenin–Pyrazine Derivatives Based on Partial Least Squares Discriminant Analysis” (International Journal of Molecular Sciences, 2018).

Assays:
[1] = system: A549 (human non-small-cell lung cancer); assay: MTT cytotoxicity assay, A549; assay type: cell-based; details: Homo sapiens, A549, 72 h treatment, read-out: Half Maximal Inhibitory Concentration (IC50) A549
Method: (§1) The cytotoxicity of hederagenin derivatives in vitro was evaluated on three tumor cell lines (A549: human non-small-cell lung cancer; MCF-7: human mammary cancer; HepG2: human hepatocellular carcinoma) using the 3-(4,5-dimethylthiazol-2-yl)-2,5-diphenyltetrazolium bromide (MTT) assay. In addition, their toxicity evaluations were tested on H9c2 (murine heart myoblast) and MDCK (Madin–Darby canine kidney) cells. MCF-7, A549, HepG2, H9c2, and MDCK cells were obtained from the Chinese Academy of Medical Sciences and Peking Union Medical College. All of the cell lines were maintained in Dulbecco’s modified Eagle medium (DMEM) supplemented with 1% (v/v) penicillin/streptomycin and 10% (v/v) fetal bovine serum (FBS; Thermo Technologies, New York, NY, USA) under a humidified atmosphere containing 5% CO2 at 37 °C. The stock solutions of He derivatives were dissolved in dimethyl sulfoxide (DMSO; Sigma, St. Louis, MO, USA) and added at various concentrations to the cell culture. Cellular morphologies were observed using an inverted fluorescence microscope (Olympus IX71, Tokyo, Japan), a plate reader (BIORAD 550 spectrophotometer, Bio-rad Life Science Development Ltd., Beijing, China), and a Canton 2 flow cytometer (BD, New York, NY, USA). The antitumor activity of these compounds were evaluated on MCF-7, A549, HepG2, MDCK, and H9c2 cell lines using the MTT assay. Cells at a density of 3 × 10^3 cells/well were plated in a 96-multiwell plate in DMEM containing 10% FBS for 24 h at 37 °C with 5% CO2. Then, cells were treated for 72 h with the required concentrations (3.125, 6.25, 12.5, 25, or 50 μM) of the compounds and reference drugs (He and DDP) dissolved with the vehicle DMSO. After that, the culture substrate was replaced with 200 μL of DMEM containing 20 μL of MTT solution at 5 mg/mL and incubated for 4 h. The supernatant was removed and the dissolved formazans precipitated with 120 μL of DMSO. Wells without drugs were used as blanks. A plate reader was used to determine the absorbance at 490 nm. The above steps were repeated three times. The IC50 values were defined as the concentration of the compound which gave 50% growth inhibition, and they were calculated using Graph Pad Prism 5. The inhibition rate was calculated using the following formula, where OD is the optical density:% inhibition = 1 − (Sample group OD/Control group OD) × 100%. (1)

[2] = system: MCF-7 (human mammary cancer); assay: MTT cytotoxicity assay, MCF-7; assay type: cell-based; details: Homo sapiens, MCF7, 72 h treatment, read-out: Half Maximal Inhibitory Concentration (IC50) MCF-7
Method: as §1

[3] = system: HepG2 (human hepatocellular carcinoma); assay: MTT cytotoxicity assay, HepG2; assay type: cell-based; details: for IC50: Homo sapiens, HepG2, MTT, 72 h treatment, read-out: Half Maximal Inhibitory Concentration (IC50) HepG2
Method: as §1

[4] = system: MDCK (Madin–Darby canine kidney) cells; assay: MTT toxicity evaluation, MDCK; assay type: cell-based; details: Canis lupus familiaris, MDCK, 72 h treatment, non-tumor cells, read-out: Half Maximal Inhibitory Concentration (IC50) MDCK
Method: as §1

[5] = system: H9c2 (murine heart myoblast); assay: MTT toxicity evaluation, H9c2; assay type: cell-based; details: H9c2, 72 h treatment, non-tumor cells, read-out: Half Maximal Inhibitory Concentration (IC50) H9c2
Method: as §1

Row | SMILES | melting point [°C] | IC50 [1] [µM] | IC50 [2] [µM] | IC50 [3] [µM] | IC50 [4] [µM] | IC50 [5] [µM] | selective inhibition (SI = IC50 MCF-7/IC50 HepG2) ([3]; ratio of IC50 MCF-7 to IC50 HepG2)
1 | Cc1cnc(C(=O)OCCOC(=O)[C@]23CCC(C)(C)CC2C2=CCC4[C@@]5(C)CC[C@H](O)[C@@](C)(CO)C5CC[C@@]4(C)[C@]2(C)CC3)cn1 (stereo partly drawn) [Compound 10, 2-(((4aS,6aS,6bR,9R,10S,12aR)-10-Hydroxy-9-(hydroxymethyl)-2,2,6a,6b,9,12a-hexamethyl-1,2,3,4,4a,5,6,6a,6b,7,8,8a,9,10,11,12,12a,12b,13,14b-icosahydropicene-4a-carbonyl)oxy)ethyl-5-methylpyrazine-2-carboxylate] | 192.6 | 20.9 ± 0.68 | 27.2 ± 2.09 | 28.17 ± 0.21 | 25.4 ± 0.28 | 19.6 ± 3.29 | 
2 | Cc1ncc(C(=O)OCCCCOC(=O)[C@]23CCC(C)(C)CC2C2=CCC4[C@@]5(C)CC[C@H](O)[C@@](C)(CO)C5CC[C@@]4(C)[C@]2(C)CC3)nc1C (stereo partly drawn) [Compound 18, 4-(((4aS,6aS,6bR,9R,10S,12aR)-10-Hydroxy-9-(hydroxymethyl)-2,2,6a,6b,9,12a-hexamethyl-1,2,3,4,4a,5,6,6a,6b,7,8,8a,9,10,11,12,12a,12b,13,14b-icosahydropicene-4a-carbonyl)oxy)butyl-5,6-dimethylpyrazine-2-carboxylate] | 134.7 | 16.17 ± 0.15 | 28.3 ± 0.41 | 11.9 ± 0.99 | 16.6 ± 0.22 | > 30 | 
3 | Cc1cncc(COC(=O)[C@]23CCC(C)(C)CC2C2=CCC4[C@@]5(C)CC[C@H](O)[C@@](C)(CO)C5CC[C@@]4(C)[C@]2(C)CC3)n1 (stereo partly drawn) [Compound 2, (6-Methylpyrazin-2-yl)methyl(4aS,6aS,6bR,9R,10S,12aR)-10-hydroxy-9-(hydroxymethyl)-2,2,6a,6b,9,12a-hexamethyl-1,3,4,5,6,6a,6b,7,8,8a,9,10,11,12,12a,12b,13,14b-octadecahydropicene-4a(2H)-carboxylate] | 107 | 20.6 ± 0.29 | 15.8 ± 0.22 | 27.2 ± 1.82 | 26.7 ± 1.64 | 25.1 ± 0.43 | 
4 | Cc1nccnc1C(=O)OC[C@@]1(C)C2CC[C@]3(C)C(CC=C4C5CC(C)(C)CC[C@]5(C(=O)OCCCCCl)CC[C@]43C)[C@@]2(C)CC[C@@H]1O (stereo partly drawn) [Compound 24, ((3S,4R,6aR,6bS,8aS,14bR)-8a-((4-Chlorobutoxy)carbonyl)-3-hydroxy-4,6a,6b,11,11,14b-hexamethyl-1,2,3,4,4a,5,6,6a,6b,7,8,8a,9,10,11,12,12a,14,14a,14b-icosahydropicen-4-yl)methyl 3-methylpyrazine-2-carboxylate] | 106.1 | 22 ± 0.87 | 17.9 ± 2.8 | 6.89 ± 0.21 | 19.3 ± 1.47 | 27.9 ± 0.62 | 
5 | Cc1ncc(C(=O)OC[C@@]2(C)C3CC[C@]4(C)C(CC=C5C6CC(C)(C)CC[C@]6(C(=O)OCCCCCl)CC[C@]54C)[C@@]3(C)CC[C@@H]2O)nc1C (stereo partly drawn) [Compound 25, ((3S,4R,6aR,6bS,8aS,14bR)-8a-((4-Chlorobutoxy)carbonyl)-3-hydroxy-4,6a,6b,11,11,14b-hexamethyl-1,2,3,4,4a,5,6,6a,6b,7,8,8a,9,10,11,12,12a,14,14a,14b-icosahydropicen-4-yl)methyl 5,6-dimethylpyrazine-2-carboxylate] | 123.6 | > 30 | 15.6 ± 1.41 | 6.42 ± 0.24 | > 30 | > 30 | 

Continued, in another order:

Row | melting point [°C] | SMILES | IC50 [1] [µM] | IC50 [2] [µM] | IC50 [3] [µM] | IC50 [4] [µM] | IC50 [5] [µM] | selective inhibition (SI = IC50 MCF-7/IC50 HepG2) ([3]; ratio of IC50 MCF-7 to IC50 HepG2)
6 | 146.8 | CC1(C)CC[C@]2(C(=O)OCc3cnccn3)CC[C@]3(C)C(=CCC4[C@@]5(C)CC[C@H](O)[C@@](C)(CO)C5CC[C@]43C)C2C1 (stereo partly drawn) [Compound 1, Pyrazin-2-ylmethyl(4aS,6aS,6bR,9R,10S,12aR)-10-hydroxy-9-(hydroxymethyl)-2,2,6a,6b,9,12a-hexamethyl-1,3,4,5,6,6a,6b,7,8,8a,9,10,11,12,12a,12b,13,14b-octadecahydropicene-4a(2H)-carboxylate] | 17.6 ± 0.37 | 16.05 ± 0.01 | 18.79 ± 0.04 | 18.1 ± 0.25 | 14.7 ± 0.51 | 
7 | 246.6 | CC1(C)CC[C@]2(C(=O)OCCO)CC[C@]3(C)C(=CCC4[C@@]5(C)CC[C@H](O)[C@@](C)(CO)C5CC[C@]43C)C2C1 (stereo partly drawn) [Compound 7, 2-Hydroxyethyl (4aS,6aS,6bR,9R,10S,12aR)-10-hydroxy-9-(hydroxymethyl)-2,2,6a,6b,9,12a-hexamethyl-1,3,4,5,6,6a,6b,7,8,8a,9,10,11,12,12a,12b,13,14b-octadecahydropicene-4a(2H)-carboxylate] | > 30 | > 30 | > 30 | > 30 | > 30 | 
8 | 146.8 | Cc1nccnc1C(=O)OCCOC(=O)[C@]12CCC(C)(C)CC1C1=CCC3[C@@]4(C)CC[C@H](O)[C@@](C)(CO)C4CC[C@@]3(C)[C@]1(C)CC2 (stereo partly drawn) [Compound 11, 2-(((4aS,6aS,6bR,9R,10S,12aR)-10-Hydroxy-9-(hydroxymethyl)-2,2,6a,6b,9,12a-hexamethyl-1,2,3,4,4a,5,6,6a,6b,7,8,8a,9,10,11,12,12a,12b,13,14b-icosahydropicene-4a-carbonyl)oxy)ethyl-3-methylpyrazine-2-carboxylate] | 14.12 ± 0.01 | 27.3 ± 0.57 | 14.84 ± 0.03 | 18.64 ± 0.18 | 14.7 ± 0.16 | 
9 | 127 | CC1(C)CC[C@]2(C(=O)OCCCCOC(=O)c3cnccn3)CC[C@]3(C)C(=CCC4[C@@]5(C)CC[C@H](O)[C@@](C)(CO)C5CC[C@]43C)C2C1 (stereo partly drawn) [Compound 14, 4-(((4aS,6aS,6bR,9R,10S,12aR)-10-Gydroxy-9-(hydroxymethyl)-2,2,6a,6b,9,12a-hexamethyl-1,2,3,4,4a,5,6,6a,6b,7,8,8a,9,10,11,12,12a,12b,13,14b-icosahydropicene-4a-carbonyl)oxy)butyl-pyrazine-2-carboxylate] | 17.6 ± 2.33 | 31.23 ± 0.15 | 7.05 ± 0.17 | 18.1 ± 0.12 | 15.9 ± 0.22 | 4.43
10 | 150.6 | Cc1nc(C)c(C(=O)OCCOC(=O)[C@]23CCC(C)(C)CC2C2=CCC4[C@@]5(C)CC[C@H](O)[C@@](C)(CO)C5CC[C@@]4(C)[C@]2(C)CC3)nc1C (stereo partly drawn) [Compound 13, 2-(((4aS,6aS,6bR,9R,10S,12aR)-10-Hydroxy-9-(hydroxymethyl)-2,2,6a,6b,9,12a-hexamethyl-1,2,3,4,4a,5,6,6a,6b,7,8,8a,9,10,11,12,12a,12b,13,14b-icosahydropicene-4a-carbonyl)oxy)ethyl-3,5,6-trimethylpyrazine-2-carboxylate] | 8.15 ± 0.17 | 18.03 ± 0.18 | 13.2 ± 0.29 | 23.22 ± 0.01 | 10.5 ± 0.61 | 
11 | 127.8 | Cc1nc(C)c(COC(=O)[C@]23CCC(C)(C)CC2C2=CCC4[C@@]5(C)CC[C@H](O)[C@@](C)(CO)C5CC[C@@]4(C)[C@]2(C)CC3)nc1C (stereo partly drawn) [Compound 6, (3,5,6-Trimethylpyrazin-2-yl)methyl(4aS,6aS,6bR,9R,10S,12aR)-10-hydroxy-9-(hydroxymethyl)-2,2,6a,6b,9,12a-hexamethyl-1,3,4,5,6,6a,6b,7,8,8a,9,10,11,12,12a,12b,13,14b-octadecahydropicene-4a(2H)-carboxylate] | 25.5 ± 0.26 | > 30 | > 30 | 24.1 ± 0.76 | > 30 | 
12 | 166.1 | Cc1cnc(C(=O)OCCCCOC(=O)[C@]23CCC(C)(C)CC2C2=CCC4[C@@]5(C)CC[C@H](O)[C@@](C)(CO)C5CC[C@@]4(C)[C@]2(C)CC3)cn1 (stereo partly drawn) [Compound 16, 4-(((4aS,6aS,6bR,9R,10S,12aR)-10-Hydroxy-9-(hydroxymethyl)-2,2,6a,6b,9,12a-hexamethyl-1,2,3,4,4a,5,6,6a,6b,7,8,8a,9,10,11,12,12a,12b,13,14b-icosahydropicene-4a-carbonyl)oxy)butyl-5-methylpyrazine-2-carboxylate] | 24.8 ± 0.66 | 28.49 ± 0.28 | 6.99 ± 0.63 | 20.12 ± 0.06 | 14.99 ± 0.12 | 
